Assay results from patent US7307166B1, “Oxpurine nucleosides and their congeners, and acyl, derivatives thereof, for improvement of hematopoiesis” (Wellstat Therapeutics Corporation, priority 1987, dated 2007).

What was measured:
Format in all cases: in vivo, mouse
female Balb/C mice = assay: Cecal ligation and puncture (CLP) polymicrobial sepsis survival; conditions: 25 mg/kg i.p. daily 3 days prior to CLP
Method: N^2,3′,5′-tripalmitoyldeoxyguanosine (PdG) stimulates neutrophil production. Since neutrophils are important in defense against bacteria, PdG was tested for beneficial effects in bacterial sepsis. Bacterial infection as a consequence of the immunocompromising effects of radiotherapy or chemotherapy is an important cause of mortality in cancer patients. The potential utility of PdG was evaluated in the cecal ligation and puncture model (CLP), a model of polymicrobial sepsis in which the cecum of an animal is tied off without otherwise obstructing intestinal flow, and then punctured to allow fecal matter trapped in the cecum to leak into the peritoneal cavity (O'Reilly, et al. Journal of Trauma, 33:679-682). This release causes peritonitis as well as subsequent bacteremia, shock, and mortality. The CLP model is a particularly rigorous challenge because it creates a severe and complex polymicrobial sepsis due to both Gram-negative and Gram-positive bacteria. The CLP model is analogous to a ruptured appendix or punctured intestine in humans.
36 female Balb/C mice were employed. The mice were randomly assigned to one of three groups of twelve mice each. Two groups were treated once per day for three days prior to CLP by i.p. injection with either 25 mg/kg PdG or with vehicle alone. One group underwent the CLP procedure but received no other treatment. Survival was monitored for 60 days after CLP.

Balb/C female mice [1] = assay: Hematopoietic recovery after cyclophosphamide in mice (spleen weight, blood cell counts)
Balb/C female mice [2] = assay: Hematopoietic recovery after 5-fluorouracil in mice
Method: 5-fluorouracil (5-FU) (150 mg/kg, i.p.) was administered to forty Balb/C female mice weighing approximately 20 grams each. Twenty-four hours later and each day thereafter for a total of 8 days, mice were given a 0.4 ml i.p. injection of either physiological saline (controls) or 5′-O-palmitoylguanosine (2.5 μmoles/mouse/day in 0.2% Tween 80). On days 7 and 14 following 5-FU administration half of the animals from each group were bled and then were sacrificed by cervical dislocation. Spleens were removed and weighed, and complete blood cells counts performed.
5-fluorouracil (5-FU) (150 mg/kg, i.p.) was administered to fifty-four Balb/C female mice weighing approximately 20 grams each. Twenty-four hours later and each day thereafter for a total of 7 days, mice were given a 0.4 ml i.p. injection of either physiological saline (controls) or palmitoylguanosine (2.5 μmoles/mouse/day in 0.2% Tween 80). On days 8, 10 and 12 following administration of 5-FU nine animals from each group were bled and then sacrificed by cervical dislocation. Spleens were removed and weighed, and complete blood cell counts performed.
Twenty-eight female Balb/C mice weighing approximately 20 grams each received a 0.4 ml i.p. injection of either physiological saline (controls), or palmitoyldeoxyguanosine (1 μmole/mouse) daily for three days. On the fourth day 5-fluorouracil (5-FU) (150 mg/kg, i.p.) was administered to all 28 of the animals. On days 5, 8 and 11 following 5-FU administration 4 (day 5) or 5 (days 8 and 11) animals from both groups were bled and then sacrificed by cervical dislocation. Spleens were removed and weighed, and complete blood cell counts performed. […]
Sixty female Balb/C mice weighing approximately 20 grams each were distributed into one of five treatment groups and treated once daily for three days by i.p. injection with 3′,5′-O—N^2-tripalmitoyl-2′-deoxyguanosine at a dose of either 1, 5, 10, 25, or 50 mg/kg/treatment in a Tween-DMSO vehicle (0.2% Tween-80 and 7.5% DMSO in physiological saline). Injection volume was 0.4 ml. An additional twelve animals (controls) received vehicle alone on those three days. On the fourth day all seventy-two animals received a single i.p. injection of 5-fluorouracil (5-FU) at a dose of 150 mg/kg. On days 7 and 10 following 5-FU administration six mice from each group were bled and then sacrificed by cervical dislocation. Six untreated mice were also bled and sacrificed to provide data on normal (basal) values. Spleens were removed and weighed, and complete blood cell counts performed.

bone marrow cells = assay: Colony forming units in bone marrow of mice recovering from cyclophosphamide
Method: Seventy-two Balb/C female mice weighing approximately 20-grams each were given cyclophosphamide (275 mg/kg) by intraperitoneal (i.p.) injection. Twenty-four hours later and each day thereafter, mice received a 0.4 ml i.p. injection of either physiological saline (control) or palmitoylguanosine (2.5 μmoles/mouse/day in 0.2% Tween 80). On days 3, 5, 7, and 10 following CP administration 6 animals from each group were sacrificed by cervical dislocation, and the left femur of each animal obtained by sterile means. The bone marrow cells were then flushed from the femurs with McCoy's 5a Modified medium using a 23-gauge needle. Cells from femurs in the same group were pooled, dispersed by briefly vortexing, and counted using a hemocytometer. Cell suspensions were added to McCoy's Modified 5a medium containing 15% bovine calf serum, 1× Kanamycin, 0.3% agar, and 3% endotoxin-stimulated serum. […] Each group was plated in quintuplicate. After 7 days in culture (at 37° in 5% CO2 and humidified air) aggregates of 50 cells or more (“colonies”) were counted using a dissecting microscope at 25×.

[3] = Table 5 (Ex 62): 5 days after CP
[4] = Table 6 (Ex 62): 7 days after CP
[5] = Table 7 (Ex 63): 5 days after CP
[6] = Table 8 (Ex 63): 7 days after CP
[7] = Table 9: 7 days after 5-FU, 10 mg/kg pretreatment
[8] = Table 9: 7 days after 5-FU, 25 mg/kg pretreatment
[9] = Table 9: 7 days after 5-FU, 50 mg/kg pretreatment
[10] = Table 10: 10 days after 5-FU, 5 mg/kg pretreatment
[11] = Table 10: 10 days after 5-FU, 10 mg/kg pretreatment
[12] = Table 10: 10 days after 5-FU, 25 mg/kg pretreatment
[13] = Table 10: 10 days after 5-FU, 50 mg/kg pretreatment
[14] = Ex 47: day 7 after CP, 2.5 μmoles/mouse/day
[15] = Ex 53: day 5 after CP, palmitoylguanosine 2.0, palmitoyldeoxyguanosine 1.0 μmoles/mouse
[16] = Ex 53: day 7 after CP, palmitoylguanosine 1.0 and 2.0, palmitoyldeoxyguanosine 1.0 μmoles/mouse

Compound: CCCCCCCCCCCCCCCC(=O)Nc1nc2c(ncn2[C@H]2C[C@H](OC(=O)CCCCCCCCCCCCCCC)[C@@H](COC(=O)CCCCCCCCCCCCCCC)O2)c(=O)[nH]1 [PdG, 3′,5′-O-N^2-tripalmitoyl-2′-deoxyguanosine]
- mice alive (female Balb/C mice; 72 hours after CLP): All
- animals surviving / total (female Balb/C mice; 60 day observation period): 10/12
- survival (female Balb/C mice; 60 day observation period): 83%
- Neutrophils (Balb/C female mice [1]; [3]): 2.5 ± .3 K/μl
- WBC (Balb/C female mice [1]; [3]): 4.1 ± .4 K/μl
- Spleen (Balb/C female mice [1]; Table 5 (Ex 62): 5 days after CP 250 mg/kg, triPdG 25 mg/kg/treatment, diPdG molar equivalent, i.p. daily): 77 ± 7 mg
- Neutrophils (Balb/C female mice [1]; [4]): 9.9 ± .9 K/μl
- Platelets (Balb/C female mice [1]; [4]): 549 ± 25 K/μl
- WBC (Balb/C female mice [1]; [4]): 13.4 ± .4 K/μl
- Spleen (Balb/C female mice [1]; Table 6 (Ex 62): 7 days after CP, triPdG 25 mg/kg, diPdG molar equivalent, daily 5 days): 156 ± 12 mg
- Neutrophils (Balb/C female mice [1]; [5]): 0.6 ± .1 K/μl
- WBC (Balb/C female mice [1]; [5]): 3.6 ± .4 K/μl
- Spleen (Balb/C female mice [1]; Table 7 (Ex 63): 5 days after CP 250 mg/kg, TriPdG 25 mg/kg/treatment, others molar equivalent, i.p. daily): 73 ± 3 mg
- Neutrophils (Balb/C female mice [1]; [6]): 7.3 ± .3 K/μl
- Platelets (Balb/C female mice [1]; [6]): 674 ± 37 K/μl
- WBC (Balb/C female mice [1]; [6]): 3.6 ± .4 K/μl
- Spleen (Balb/C female mice [1]; Table 8 (Ex 63): 7 days after CP, TriPdG 25 mg/kg, others molar equivalent, daily 5 days): 198 ± 23 mg
- Platelets (Balb/C female mice [2]; Table 9: 7 days after 5-FU, 5 mg/kg pretreatment): 682 ± 66 K/μl
- Platelets (Balb/C female mice [2]; [7]): 571 ± 41 K/μl
- Spleen (Balb/C female mice [2]; [7]): 83 ± 6 mg
- Platelets (Balb/C female mice [2]; [8]): 587 ± 19 K/μl
- Spleen (Balb/C female mice [2]; [8]): 93 ± 5 mg
- Platelets (Balb/C female mice [2]; [9]): 596 ± 43 K/μl
- Spleen (Balb/C female mice [2]; [9]): 102 ± 4 mg
- Neutrophils (Balb/C female mice [2]; Table 10: 10 days after 5-FU, 1 mg/kg pretreatment): 0.4 ± .2 K/μl
- Neutrophils (Balb/C female mice [2]; [10]): 1.6 ± .4 K/μl
- Spleen (Balb/C female mice [2]; [10]): 157 ± 13 mg
- Neutrophils (Balb/C female mice [2]; [11]): 1.8 ± .4 K/μl
- Spleen (Balb/C female mice [2]; [11]): 169 ± 24 mg
- Lymphocytes (Balb/C female mice [2]; [12]): 8.3 ± .4 K/μl
- Neutrophils (Balb/C female mice [2]; [12]): 2.9 ± .4 K/μl
- Spleen (Balb/C female mice [2]; [12]): 293 ± 17 mg
- WBC (Balb/C female mice [2]; [12]): 11.4 ± .6 K/μl
- Lymphocytes (Balb/C female mice [2]; [13]): 8.3 ± 1.0 K/μl
- Neutrophils (Balb/C female mice [2]; [13]): 2.2 ± .5 K/μl
- Spleen (Balb/C female mice [2]; [13]): 320 ± 39 mg
- WBC (Balb/C female mice [2]; [13]): 10.8 ± 1.6 K/μl

Compound: CCCCCCCCCCCCCCCC(=O)OC[C@H]1O[C@@H](n2cnc3c(=O)[nH]c(N)nc32)[C@H](O)[C@@H]1O
- colony-forming units per femur (bone marrow cells; Day 3 after CP, 2.5 μmoles/mouse/day in 0.2% Tween 80 i.p.): 645 ± 26
- colony-forming units per femur (bone marrow cells; Day 5 after CP, 2.5 μmoles/mouse/day): 2327 ± 121
- colony-forming units per femur (bone marrow cells; Day 7 after CP, 2.5 μmoles/mouse/day): 1328 ± 140
- colony-forming units per femur (bone marrow cells; Day 10 after CP, 2.5 μmoles/mouse/day): 647 ± 25
- white blood cell (WBC) counts (Balb/C female mice [1]; Ex 38: day 7 after CP, guanosine 5, acyl derivatives 2.5 μmoles/mouse/day in 0.2% Tween 80): greatest effect
- spleen weight (Balb/C female mice [1]; Ex 41: day 7 after CP, 5 μmoles/mouse/day in 0.2% Tween 80 on days 1-2, 1-4, 3-5, 4-6 or 1-6, vs saline): significantly greater
- Total white blood cell (WBC) counts (Balb/C female mice [1]; Ex 41: day 7 after CP, 5 μmoles/mouse/day, each timing group, vs saline): significantly greater
- lymphocyte counts (Balb/C female mice [1]; Ex 41: day 7 after CP, treatment on days 1-2 or 1-6): elevated
- total neutrophil counts (Balb/C female mice [1]; Ex 41: day 7 after CP, treatment on days 1-6): greatest increase
- Neutrophils (Balb/C female mice [1]; [14]): significantly elevated
- spleen weight (Balb/C female mice [1]; [14]): significantly elevated
- total white blood cells (Balb/C female mice [1]; Ex 47: day 7 after CP, 2.5 μmoles/mouse/day in 0.2% Tween 80 i.p. 6 days): significantly elevated
- spleen weight (Balb/C female mice [1]; Ex 50: day 5 after CP, 2 μmoles/mouse): significantly elevated
- total neutrophil counts (Balb/C female mice [1]; Ex 53: day 5 after CP, 1.0 μmoles/mouse): significantly increased
- spleen weight (Balb/C female mice [1]; [15]): significantly elevated
- total neutrophil counts (Balb/C female mice [1]; [15]): significantly elevated
- white blood cell counts (Balb/C female mice [1]; [15]): significantly elevated
- spleen weight (Balb/C female mice [1]; [16]): significantly elevated
- total neutrophil counts (Balb/C female mice [1]; [16]): significantly elevated
- white blood cell counts (Balb/C female mice [1]; [16]): significantly elevated
- spleen weight (Balb/C female mice [2]; Ex 42: day 7 after 5-FU 150 mg/kg, 2.5 μmoles/mouse/day in 0.2% Tween 80 i.p. 8 days): slight, but statistically significant, increase
- Lymphocytes (Balb/C female mice [2]; Ex 42: day 14 after 5-FU): significantly higher
- Neutrophils (Balb/C female mice [2]; Ex 42: day 14 after 5-FU): significantly higher
- Platelets (Balb/C female mice [2]; Ex 42: day 14 after 5-FU): significantly higher
- spleen weight (Balb/C female mice [2]; Ex 42: day 14 after 5-FU): significantly heavier
- total leukocytes (Balb/C female mice [2]; Ex 42: day 14 after 5-FU): significantly higher
- number of platelets (Balb/C female mice [2]; Ex 43: day 8 after 5-FU, 2.5 μmoles/mouse/day in 0.2% Tween 80 i.p. 7 days): significantly greater
- number of platelets (Balb/C female mice [2]; Ex 43: day 10 after 5-FU): greater numbers
- spleen size (Balb/C female mice [2]; Ex 43: day 10 after 5-FU): significantly larger
- number of neutrophils vs control (Balb/C female mice [2]; Ex 43: day 12 after 5-FU): 3 fold
- spleen weight vs control mice (Balb/C female mice [2]; Ex 43: day 12 after 5-FU): more than double
